US7482379B2, “Propenoyl hydrazides” (priority 2004, dated 2009)
Peptide text beside a SMILES is read from it. * marks the point of attachment. AFC = O=c1cc(C(F)(F)F)c2ccc(N*)cc2o1

Tests used:
Caspase-2 = molecular target: T1, Caspase-2 (Homo sapiens, UniProt P42575); experiment: Caspase-2 progress curve inhibition assay; details: second-order rate constant; Cbz-VDVAD-AFC substrate; Pipes buffer pH 7.2
T1 sequence (P42575 170-333 limits assumed): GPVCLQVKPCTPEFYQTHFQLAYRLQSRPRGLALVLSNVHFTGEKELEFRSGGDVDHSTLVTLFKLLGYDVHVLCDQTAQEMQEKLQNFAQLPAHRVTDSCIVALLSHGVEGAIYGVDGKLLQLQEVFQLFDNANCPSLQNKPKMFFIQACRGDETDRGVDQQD
T1 sequence (P42575 348-452 limits assumed): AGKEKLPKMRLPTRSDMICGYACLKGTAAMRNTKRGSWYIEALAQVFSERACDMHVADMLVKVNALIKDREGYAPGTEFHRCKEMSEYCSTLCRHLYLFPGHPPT

Caspase-3 = molecular target: T2, Caspase-3 (Homo sapiens, UniProt P42574); experiment: Caspase-3 progress curve inhibition assay; details: for k2 Caspase-3: second-order rate constant, Ac-DEVD-AMC substrate, Pipes buffer pH 7.2
T2 sequence (P42574 29-175 limits assumed): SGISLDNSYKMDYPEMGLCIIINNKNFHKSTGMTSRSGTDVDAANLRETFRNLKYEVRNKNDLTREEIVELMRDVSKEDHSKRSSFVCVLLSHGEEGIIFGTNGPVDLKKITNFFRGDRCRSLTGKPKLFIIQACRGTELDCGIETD
T2 sequence (P42574 176-277 limits assumed): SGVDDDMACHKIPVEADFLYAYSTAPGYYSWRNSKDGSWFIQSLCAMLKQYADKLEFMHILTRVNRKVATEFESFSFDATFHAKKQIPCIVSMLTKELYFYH

Caspase-6 = molecular target: T3, Caspase-6 (Homo sapiens, UniProt P55212); experiment: Caspase-6 progress curve inhibition assay; details: second-order rate constant; Ac-DEVD-AMC substrate; Pipes buffer pH 7.2
T3 sequence (P55212 24-179 limits assumed): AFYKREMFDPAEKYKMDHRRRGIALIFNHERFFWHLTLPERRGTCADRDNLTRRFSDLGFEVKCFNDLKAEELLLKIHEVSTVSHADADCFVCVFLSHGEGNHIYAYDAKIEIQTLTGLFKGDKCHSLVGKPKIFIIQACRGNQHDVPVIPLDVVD
T3 sequence (P55212 194-293 limits assumed): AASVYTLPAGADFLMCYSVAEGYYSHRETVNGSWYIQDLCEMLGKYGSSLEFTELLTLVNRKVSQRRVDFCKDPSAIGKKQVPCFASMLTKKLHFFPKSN

Caspase-7 = molecular target: T4, Caspase-7 (Homo sapiens, UniProt P55210); experiment: Caspase-7 progress curve inhibition assay; details: second-order rate constant; Ac-DEVD-AMC substrate; Pipes buffer pH 7.2
T4 sequence (P55210 24-198 limits assumed): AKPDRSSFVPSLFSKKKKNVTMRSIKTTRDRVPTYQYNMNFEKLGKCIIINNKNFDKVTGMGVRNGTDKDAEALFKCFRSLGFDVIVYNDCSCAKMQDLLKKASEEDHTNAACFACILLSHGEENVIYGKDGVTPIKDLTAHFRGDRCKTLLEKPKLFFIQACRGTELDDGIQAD
T4 sequence (P55210 207-303 limits assumed): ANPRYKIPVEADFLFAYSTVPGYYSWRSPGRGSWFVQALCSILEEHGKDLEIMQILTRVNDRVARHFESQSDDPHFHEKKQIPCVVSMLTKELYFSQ

Caspase-8 = Caspase-8 (Homo sapiens, UniProt Q14790); experiment: Caspase-8 progress curve inhibition assay; details: second-order rate constant; Ac-DEVD-AMC substrate; Pipes buffer pH 7.2
Caspase-9 = molecular target: T5, Caspase-9 (Homo sapiens, UniProt P55211); experiment: Caspase-9 progress curve inhibition assay; details: for k2 Caspase-9: second-order rate constant, Ac-LEHD-AFC substrate, Hepes buffer pH 7.0 with 0.7 M sodium citrate
T5 sequence (P55211 1-315 limits assumed): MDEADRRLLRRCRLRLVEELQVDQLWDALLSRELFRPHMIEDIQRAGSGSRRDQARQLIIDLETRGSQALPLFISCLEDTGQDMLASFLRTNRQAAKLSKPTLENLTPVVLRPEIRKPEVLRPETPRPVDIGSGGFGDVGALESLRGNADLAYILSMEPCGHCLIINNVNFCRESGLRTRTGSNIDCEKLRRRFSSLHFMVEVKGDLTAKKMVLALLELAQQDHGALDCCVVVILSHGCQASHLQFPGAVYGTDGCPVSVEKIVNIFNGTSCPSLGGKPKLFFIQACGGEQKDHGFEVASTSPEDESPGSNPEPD
T5 sequence (P55211 331-416 limits assumed): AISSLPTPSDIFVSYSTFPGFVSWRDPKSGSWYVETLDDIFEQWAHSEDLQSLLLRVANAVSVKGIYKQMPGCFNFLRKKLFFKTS

Caspase-10 = molecular target: T6, Caspase-10 (Homo sapiens, UniProt Q92851); experiment: Caspase-10 progress curve inhibition assay; details: second-order rate constant; Ac-DEVD-AMC substrate; Hepes/PEG buffer pH 7.0
T6 sequence (Q92851 220-415 limits assumed): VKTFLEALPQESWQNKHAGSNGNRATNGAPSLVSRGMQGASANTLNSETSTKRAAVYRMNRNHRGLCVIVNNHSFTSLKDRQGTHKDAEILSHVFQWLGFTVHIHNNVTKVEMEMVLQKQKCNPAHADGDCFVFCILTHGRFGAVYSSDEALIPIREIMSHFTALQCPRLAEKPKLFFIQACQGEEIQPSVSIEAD
T6 sequence (Q92851 416-521 limits assumed): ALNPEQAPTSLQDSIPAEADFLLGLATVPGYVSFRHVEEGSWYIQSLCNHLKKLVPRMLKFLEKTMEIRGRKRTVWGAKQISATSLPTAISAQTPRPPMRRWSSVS

Caspase-8, sequence (Q14790 217-374 limits assumed): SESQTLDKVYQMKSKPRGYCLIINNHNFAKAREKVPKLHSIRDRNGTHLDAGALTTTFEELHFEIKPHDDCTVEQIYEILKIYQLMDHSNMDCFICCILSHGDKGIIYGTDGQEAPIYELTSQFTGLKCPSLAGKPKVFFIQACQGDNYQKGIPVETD
Caspase-8, sequence (Q14790 385-479 limits assumed): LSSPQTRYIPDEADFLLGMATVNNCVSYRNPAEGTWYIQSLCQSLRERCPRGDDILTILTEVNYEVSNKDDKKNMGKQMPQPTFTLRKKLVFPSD

| k2 Caspase-3 (Caspase-3) | k2 Caspase-6 (Caspase-6) | k2 Caspase-7 (Caspase-7) | Km (Caspase-9; read-out: KM with caspase-9, substrate Ac-LEHD-AFC) | Structure (SMILES) | k2 Caspase-2 (Caspase-2) | k2 Caspase-8 (Caspase-8) | k2 Caspase-9 (Caspase-9) | k2 Caspase-10 (Caspase-10) | selectivity: inhibits caspase-3 more potently than caspase-6 (Caspase-3; ratio of k2 caspase-3 to caspase-6) | selectivity: inhibits caspase-3 more potently than caspase-8 (Caspase-3; ratio of k2 caspase-3 to caspase-8) | k2 Caspase-3 (Caspase-3; listed as Cbz-Asp-Glu-Val-AAsp-CH═CH—CON(Bzl)2) |
| --- | --- | --- | --- | --- | --- | --- | --- | --- | --- | --- | --- |
| 5,620,000 M^−1s^−1 | 29,700 M^−1s^−1 | 875,000 M^−1s^−1 | – | CC(C)[C@H](NC(=O)[C@H](CCC(=O)O)NC(=O)[C@H](CC(=O)O)NC(=O)OCc1ccccc1)C(=O)NN(CC(=O)O)C(=O)C=CC(=O)N(Cc1cccc2ccccc12)Cc1cccc2ccccc12 | 410 M⁻¹ s⁻¹ | 9,460 M^−1s^−1 | 150 M⁻¹ s⁻¹ | 32,500 M^−1s^−1 | – | – | – |
| 2,640,000 M^−1s^−1 | 9,500 M^−1s^−1 | 275,000 M^−1s^−1 | – | CC(C)[C@H](NC(=O)[C@H](CCC(=O)O)NC(=O)[C@H](CC(=O)O)NC(=O)OCc1ccccc1)C(=O)NN(CC(=O)O)C(=O)/C=C/C(=O)N(C)Cc1ccccc1 (relative stereo) [Cbz-Asp-Glu-Val-AAsp-CH═CH—CON(CH3)CH2Ph, N^1-trans-(3-Benzylmethylcarbamoylpropenoyl)-N^2—(N-benzyloxycarbonylaspartylglutamylvalyl)-N^1-carboxymethylhydrazine] | 660 M⁻¹ s⁻¹ | 90,300 M^−1s^−1 | 820 M⁻¹ s⁻¹ | 29,400 M^−1s^−1 | – | – | – |
| 4,600 M^−1s^−1 | 47,600 M^−1s^−1 | 1,570 M^−1s^−1 | – | CC(C)C[C@H](NC(=O)OCc1ccccc1)C(=O)N[C@@H](CCC(=O)O)C(=O)N[C@H](C(=O)NN(CC(=O)O)C(=O)/C=C/C(=O)OCc1ccccc1)[C@@H](C)O (relative stereo) [Cbz-Leu-Glu-Thr-AAsp-CH═CH—COOCH2Ph, N^1-trans-(3-Benzyloxycarbonylpropenoyl)-N^2—(N-benzyloxycarbonylleucylglutamylthreonyl)-N^1-carboxymethylhydrazine] | 480 M⁻¹ s⁻¹ | 98,400 M^−1s^−1 | – | 18,900 M^−1s^−1 | – | – | – |
| – | – | – | – | CC(C)[C@H](NC(=O)OCc1ccccc1)C(=O)NN(CC(=O)O)C(=O)/C=C/c1ccc(Cl)cc1 (stereo in doubt) [Cbz-Val-AAsp-CH═CH-4-Cl—Ph, N^2—(N-Benzyloxycarbonylvalyl)-N^1-carboxymethyl-N^1-trans-(3-(4-chlorophenyl)propenoyl)hydrazine] | – | – | 19 M⁻¹ s⁻¹ | – | – | – | – |
| 184 M⁻¹ s⁻¹ | – | 55 M⁻¹ s⁻¹ | – | CCCCNC(=O)/C=C/C(=O)N(CC(=O)O)NC(=O)[C@@H](NC(=O)OCc1ccccc1)C(C)C (stereo in doubt) [Cbz-Val-AAsp-CH═CH—CONH-nBu, N^2—(N-Benzyloxycarbonylvalyl)-N^1-trans-(3-butylcarbamoylpropenoyl)-N^1-carboxymethylhydrazine] | – | – | 32 M⁻¹ s⁻¹ | – | – | – | – |
| 185 M⁻¹ s⁻¹ | – | 60 M⁻¹ s⁻¹ | – | CC(C)[C@H](NC(=O)OCc1ccccc1)C(=O)NN(CC(=O)O)C(=O)/C=C/C(=O)NCc1ccccc1 (stereo in doubt) [Cbz-Val-AAsp-CH═CH—CONHCH2Ph, N^1-trans-(3-Benzylcarbamoylpropenoyl)-N^2—(N-benzyloxycarbonylvalyl)-N^1-carboxymethylhydrazine] | – | – | 20 M⁻¹ s⁻¹ | – | – | – | – |
| – | – | – | – | CC(C)[C@H](NC(=O)OCc1ccccc1)C(=O)NN(CC(=O)O)C(=O)/C=C\Cl (stereo in doubt) [Cbz-Val-AAsp-CH═CH—Cl, N^2—(N-Benzyloxycarbonylvalyl)-N^1-carboxymethyl-N^1-cis-(3-chloropropenoyl)hydrazine] | – | – | 15 M⁻¹ s⁻¹ | – | – | – | – |
| – | – | – | 114 µM | CC(=O)N[C@@H](CC(C)C)C(=O)N[C@@H](CCC(=O)O)C(=O)N[C@@H](Cc1cnc[nH]1)C(=O)N[C@@H](CC(=O)O)C(=O)Nc1ccc2c(C(F)(F)F)cc(=O)oc2c1 [Ac-LEHD-AFC, reference compound] (Ac-LEHD-{AFC}) | – | – | – | – | – | – | – |

| Structure (SMILES) | k2 Caspase-3 (Caspase-3) | k2 Caspase-6 (Caspase-6) | k2 Caspase-7 (Caspase-7) | Km (Caspase-9; read-out: KM with caspase-9, substrate Ac-LEHD-AFC) | k2 Caspase-2 (Caspase-2) | k2 Caspase-8 (Caspase-8) | k2 Caspase-9 (Caspase-9) | k2 Caspase-10 (Caspase-10) | selectivity: inhibits caspase-3 more potently than caspase-6 (Caspase-3; ratio of k2 caspase-3 to caspase-6) | selectivity: inhibits caspase-3 more potently than caspase-8 (Caspase-3; ratio of k2 caspase-3 to caspase-8) | k2 Caspase-3 (Caspase-3; listed as Cbz-Asp-Glu-Val-AAsp-CH═CH—CON(Bzl)2) |
| --- | --- | --- | --- | --- | --- | --- | --- | --- | --- | --- | --- |
| CC(C)[C@H](NC(=O)[C@H](CCC(=O)O)NC(=O)[C@H](CC(=O)O)NC(=O)OCc1ccccc1)C(=O)NN(CC(=O)O)C(=O)/C=C/C(=O)N(Cc1ccccc1)Cc1ccccc1 (relative stereo) [Cbz-Asp-Glu-Val-AAsp-CH═CH—CON(CH2Ph)2, N^2—(N-Benzyloxycarbonylaspartylglutamylvalyl)-N^1-carboxymethyl-N^1-trans-(3-dibenzylcarbamoylpropenoyl)hydrazine] | – | 5,100 M^−1s^−1 | 359,000 M^−1s^−1 | – | 110 M⁻¹ s⁻¹ | 8,600 M^−1s^−1 | 450 M⁻¹ s⁻¹ | 6,300 M^−1s^−1 | 588 fold | 348 fold | 3,000,000 M^−1s^−1 |
| CCOC(=O)/C=C/C(=O)N(CC(=O)O)NC(=O)[C@@H](NC(=O)[C@H](CCC(=O)O)NC(=O)[C@@H](NC(=O)OCc1ccccc1)[C@@H](C)CC)[C@@H](C)O (relative stereo) [Cbz-Ile-Glu-Thr-AAsp-CH═CH—COOEt, N^2—(N-Benzyloxycarbonylisoleucylglutamylthreonyl)-N^1-carboxymethyl-N^1-trans-(3-ethoxycarbonylpropenoyl)hydrazine] | 6,740 M^−1s^−1 | 88,700 M^−1s^−1 | 530 M⁻¹ s⁻¹ | – | 300 M⁻¹ s⁻¹ | 56,500 M^−1s^−1 | – | 6,900 M^−1s^−1 | – | – | – |
| CC[C@H](C)[C@H](NC(=O)OCc1ccccc1)C(=O)N[C@@H](CCC(=O)O)C(=O)N[C@H](C(=O)NN(CC(=O)O)C(=O)/C=C/C(=O)N(C)CCc1ccccc1)[C@@H](C)O (relative stereo) [N^2—(N-Benzyloxycarbonylisoleucylglutamylthreonyl)-N^1-carboxylmethyl-N^1-trans-(3-methylphenylethylcarbamoylpropenoyl)hydrazine] | 5,480 M^−1s^−1 | – | 1,020 M^−1s^−1 | – | 38 M⁻¹ s⁻¹ | 60,500 M^−1s^−1 | 760 M⁻¹ s⁻¹ | 8,770 M^−1s^−1 | – | – | – |
| CCOC(=O)/C=C/C(=O)N(CC(=O)O)NC(=O)[C@@H](NC(=O)OCc1ccccc1)C(C)C (stereo in doubt) [Cbz-Val-AAsp-CH═CH—COOEt, N^2—(N-Benzyloxycarbonylvalyl)-N^1-carboxymethyl-N^1-trans-(3-ethoxycarbonylpropenoyl)hydrazine] | 8,000 M^−1s^−1 | – | 2,680 M^−1s^−1 | – | – | – | 5,240 M^−1s^−1 | 389 M⁻¹ s⁻¹ | – | – | – |
